Test results: patent US20110288093A1 (priority 2010, published 2011)
“Also recorded” adds a separate entry of the source.

Tests used:
cholera toxin (CTX) = tested on: cholera toxin (CTX); design: species or system mice (CD1 strain); details: mouse, in vivo
[1] = tested on: swelling-activated chloride conductance (VRAC); experiment: Whole cell patch clamp recordings of VRAC in JME/CF15 cells; format: cell-based
Description: (§1) Compound 2 was tested in whole cell patch clamp recordings for its specific effect on the swelling-activated chloride conductance (VRAC), and the Calcium activated chloride conductance (CaCC). CaCC and VRAC were investigated in JME/CF15 cells. […] Effect of compound 2 was tested in 2 runs at 1 and 10 μM, respectively, on CaCC, and VRAC.
(§2) JME/CF15 cells (see Jefferson et al. “Expression of normal and cystic fibrosis phenotypes by continuous airway epithelial cell lines” Am J Physiol. (1990) 259:L496-L505) were cultured as described (see Schwarzer et al. “Organelle redox of CF and CFTR-corrected airway epithelia measured with roGFP1” Free Radic Biol Med. (2007) 43:300-316, incorporated herein by reference in its entirety) and were seeded onto glass cover slips at low density and used 1 to 2 days after seeding
(§3) Whole cell patch clamp experiments were performed as described (see Fischer et al. “Basolateral C1 channels in primary airway epithelial cultures” Am J Physiol Lung Cell Mol Physiol. (2007) 292:L1432-L1443, incorporated herein by reference in its entirety), the pipette solution contained (in mM): 140 HCl, 160 N-methyl-D-glucamine (NMDG), 1 MgCl2, 5 Hepes, 1 glucose, 5 MgATP, pH 7.4. To investigate VRAC, the pipette contained in addition 5 mM EGTA. To investigate CaCC, the intracellular free Ca concentration was buffered to ˜500 nM by adding 1.8 mM CaCl2 and 2 mM EGTA. […]

[2] = tested on: Calcium activated chloride conductance (CaCC); experiment: Whole cell patch clamp recordings of CaCC in JME/CF15 cells; format: cell-based
Description: as §1, §2, §3

[3] = 10 μM, 0% indicates complete block and 100% indicates no block
[4] = tested at 1 and 10 μM, block stronger at depolarizing (positive) potential

SMILES | inhibition of CTX-induced fluid secretion (cholera toxin (CTX)) [%] | inhibition of fluid secretion (in words) (cholera toxin (CTX)) | net fluid secretion (loop weight/loop length), CTX loop (cholera toxin (CTX)) | current remaining in VRAC [1, 3] [%] | block of VRAC (in words) [1, 4] | current remaining in CaCC after the addition of compound [2, 3] [%] | block of CaCC (in words) [2, 4]
O=C(NCc1ccc(Oc2ccccc2)cc1)c1nc(-c2cc(Br)c(O)c(Br)c2)no1 [BF'032, 3-(3,5-dibromo-4-hydroxyphenyl)-N-(4-phenoxybenzyl)-1,2,4-oxadiazole-5-carboxamide] | 90.16 | statistically significant inhibition | 0.06482 g/cm of loop | – | – | – | –
O=S(=O)(Nc1cccc(-c2ccc(OCCc3ccc(Cl)cc3)nn2)c1)C(F)(F)F [compound 2, N-(3-(6-(4-chlorophenethoxy)pyridazin-3-yl)phenyl)-1,1,1-trifluoromethanesulfonamide] | – | statistically significant inhibition | – | 23 | blocks VRAC significantly and that the block is voltage dependent; also recorded: blocked VRAC significantly and the block was voltage dependent | 64 | blocks CaCC and that the block is voltage dependent; also recorded: blocked CaCC and the block was voltage dependent
